Source: patent US9603849B2, “Uses of orvepitant” (NERRE THERAPEUTICS LIMITED, priority 2012, dated 2017)

Molecular target: NK-1 receptor (Meriones unguiculatus, UniProt Q5DUB1)
Test: GR73632-induced hindlimb scratching behaviour in the Mongolian gerbil
Format: in vivo
Details: mean ± s.e.m.
Source text: 5) Particularly the antipruritic effect of orvepitant maleate was determinated in GR73632-induced scratching behaviour in the Mongolian gerbil. According to this metholody the scratching behaviour was induced by GR73632 which is a specific agonist of the NK-1 receptor.
72 male Mongolian gerbils (58-78 g) after a minimum habituation period of 10 days prior to study commencement, were acclimatised to the procedure room in their home cages, with food and water available ad libitum. The day before the experiment was due to commence a 1 cm×1 cm squared area between the shoulder blades was shaved free of hair.
Habituation to the apparatus (custom made observation chambers; approximately 30×30 cm; 2 animals per observation) took place 30 minutes prior to induction of scratching behaviours using GR73632.
A 10 mg/kg stock solution of orvepitant maleate was made by dissolving 20 mg of orvepitant maleate Form 1 in 20 mls of vehicle (5% DMSO & 95% HPMC (0.5%)). This stock solution was serially diluted to prepare doses of 0.1, 0.3, 1.0, 3.0 or 10 mg/kg orvepitant maleate.
At T=−60 mins mongolian gerbils were dosed with orvepitant maleate (0.1, 0.3, 1.0, 3.0 or, 10 mg/kg p.o.). Gerbils were allocated to dosing groups based on a Latin square design. 30 Minutes later (T=−30 mins) gerbils were placed into the observation chamber for 30 minutes habituation. At T=0 Gerbils were then dosed with GR73632 (30 nmol/100 uL; i.d.) between the shoulder blades and their subsequent hindlimb scratching behaviour recorded using GeoVision surveillance software over a 30 minute period.
Playing back of the video served for counting scratching behaviour. […] Cumulative frequency and duration (secs) of scratching was scored in 5 min epochs. Treatment groups were randomised based on a Latin Square design. The experimenter was blinded to the treatment groups.
Repeated measures ANOVA followed by Planned comparison test using GraphPad Prism. (p<0.05 considered significant). Data were analysed by comparing treatment groups to control group at each time point.

NK-1 receptor, sequence (Q5DUB1 whole entry): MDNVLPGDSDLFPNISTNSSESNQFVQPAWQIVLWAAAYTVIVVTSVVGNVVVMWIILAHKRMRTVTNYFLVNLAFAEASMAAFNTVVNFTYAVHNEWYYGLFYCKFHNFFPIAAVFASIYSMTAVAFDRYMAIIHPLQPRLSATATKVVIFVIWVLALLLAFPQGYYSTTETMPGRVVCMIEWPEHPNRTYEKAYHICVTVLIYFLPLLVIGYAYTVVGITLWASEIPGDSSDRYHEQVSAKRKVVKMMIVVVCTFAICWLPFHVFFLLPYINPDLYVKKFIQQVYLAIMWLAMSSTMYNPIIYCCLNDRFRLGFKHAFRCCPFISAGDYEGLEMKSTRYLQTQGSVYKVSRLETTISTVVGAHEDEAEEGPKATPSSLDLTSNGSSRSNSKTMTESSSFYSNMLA

- Cumulative duration of hindlimb scratching (0.1 mg/kg p.o., 0-5 mins after GR73632 i.d., vehicle 5.35 ± 1.37): NS 2.76 ± 0.71 secs
- Cumulative frequency of hindlimb scratching (0.1 mg/kg p.o., 0-5 mins after GR73632 i.d., vehicle 7.75 ± 2.18): NS4.08 ± 1.45
- Cumulative duration of hindlimb scratching (0.1 mg/kg p.o., 5-10 mins after GR73632 i.d., vehicle 11.71 ± 1.93): **4.20 ± 0.85 secs
- Cumulative frequency of hindlimb scratching (0.1 mg/kg p.o., 5-10 mins after GR73632 i.d., vehicle 14.41 ± 2.49): **5.83 ± 1.55
- Cumulative duration of hindlimb scratching (0.1 mg/kg p.o., 10-15 mins after GR73632 i.d., vehicle 16.54 ± 2.58): ***5.96 ± 1.16 secs
- Cumulative frequency of hindlimb scratching (0.1 mg/kg p.o., 10-15 mins after GR73632 i.d., vehicle 20.25 ± 2.97): ***7.91 ± 1.74
- Cumulative duration of hindlimb scratching (0.1 mg/kg p.o., 15-20 mins after GR73632 i.d., vehicle 20.08 ± 2.83): ***7.86 ± 1.67 secs
- Cumulative frequency of hindlimb scratching (0.1 mg/kg p.o., 15-20 mins after GR73632 i.d., vehicle 24.33 ± 3.22): ***9.66 ± 1.92
- Cumulative duration of hindlimb scratching (0.1 mg/kg p.o., 20-25 mins after GR73632 i.d., vehicle 23.19 ± 2.80): ***8.99 ± 2.09 secs
- Cumulative frequency of hindlimb scratching (0.1 mg/kg p.o., 20-25 mins after GR73632 i.d., vehicle 28.25 ± 3.26): ***10.91 ± 2.07
- Cumulative duration of hindlimb scratching (0.1 mg/kg p.o., 25-30 mins after GR73632 i.d., vehicle 25.69 ± 3.026): ***9.67 ± 2.14 secs
- Cumulative frequency of hindlimb scratching (0.1 mg/kg p.o., 25-30 mins after GR73632 i.d., vehicle 32.00 ± 3.60): ***11.58 ± 2.12
- Cumulative duration of hindlimb scratching (0.3 mg/kg p.o., 0-5 mins after GR73632 i.d., vehicle 5.35 ± 1.37): NS 2.06 ± 0.62 secs
- Cumulative frequency of hindlimb scratching (0.3 mg/kg p.o., 0-5 mins after GR73632 i.d., vehicle 7.75 ± 2.18): NS3.00 ± 0.88
- Cumulative duration of hindlimb scratching (0.3 mg/kg p.o., 5-10 mins after GR73632 i.d., vehicle 11.71 ± 1.93): **3.50 ± 0.88 secs
- Cumulative frequency of hindlimb scratching (0.3 mg/kg p.o., 5-10 mins after GR73632 i.d., vehicle 14.41 ± 2.49): ***4.91 ± 1.15
- Cumulative duration of hindlimb scratching (0.3 mg/kg p.o., 10-15 mins after GR73632 i.d., vehicle 16.54 ± 2.58): ***5.86 ± 1.44 secs
- Cumulative frequency of hindlimb scratching (0.3 mg/kg p.o., 10-15 mins after GR73632 i.d., vehicle 20.25 ± 2.97): ***7.50 ± 1.56
- Cumulative duration of hindlimb scratching (0.3 mg/kg p.o., 15-20 mins after GR73632 i.d., vehicle 20.08 ± 2.83): ***7.09 ± 1.63 secs
- Cumulative frequency of hindlimb scratching (0.3 mg/kg p.o., 15-20 mins after GR73632 i.d., vehicle 24.33 ± 3.22): ***8.66 ± 1.61
- Cumulative duration of hindlimb scratching (0.3 mg/kg p.o., 20-25 mins after GR73632 i.d., vehicle 23.19 ± 2.80): ***8.58 ± 1.93 secs
- Cumulative frequency of hindlimb scratching (0.3 mg/kg p.o., 20-25 mins after GR73632 i.d., vehicle 28.25 ± 3.26): ***10.00 ± 1.62
- Cumulative duration of hindlimb scratching (0.3 mg/kg p.o., 25-30 mins after GR73632 i.d., vehicle 25.69 ± 3.026): ***10.27 ± 2.17 secs
- Cumulative frequency of hindlimb scratching (0.3 mg/kg p.o., 25-30 mins after GR73632 i.d., vehicle 32.00 ± 3.60): ***11.75 ± 1.90
- Cumulative duration of hindlimb scratching (1.0 mg/kg p.o., 0-5 mins after GR73632 i.d., vehicle 5.35 ± 1.37): NS 2.74 ± 1.06 secs
- Cumulative frequency of hindlimb scratching (1.0 mg/kg p.o., 0-5 mins after GR73632 i.d., vehicle 7.75 ± 2.18): NS3.75 ± 1.30
- Cumulative duration of hindlimb scratching (1.0 mg/kg p.o., 5-10 mins after GR73632 i.d., vehicle 11.71 ± 1.93): **4.51 ± 1.05 secs
- Cumulative frequency of hindlimb scratching (1.0 mg/kg p.o., 5-10 mins after GR73632 i.d., vehicle 14.41 ± 2.49): **5.91 ± 1.25
- Cumulative duration of hindlimb scratching (1.0 mg/kg p.o., 10-15 mins after GR73632 i.d., vehicle 16.54 ± 2.58): ***4.92 ± 1.13 secs
- Cumulative frequency of hindlimb scratching (1.0 mg/kg p.o., 10-15 mins after GR73632 i.d., vehicle 20.25 ± 2.97): ***6.41 ± 1.29
- Cumulative duration of hindlimb scratching (1.0 mg/kg p.o., 15-20 mins after GR73632 i.d., vehicle 20.08 ± 2.83): ***6.02 ± 1.28 secs
- Cumulative frequency of hindlimb scratching (1.0 mg/kg p.o., 15-20 mins after GR73632 i.d., vehicle 24.33 ± 3.22): ***8.00 ± 1.39
- Cumulative duration of hindlimb scratching (1.0 mg/kg p.o., 20-25 mins after GR73632 i.d., vehicle 23.19 ± 2.80): ***7.48 ± 1.55 secs
- Cumulative frequency of hindlimb scratching (1.0 mg/kg p.o., 20-25 mins after GR73632 i.d., vehicle 28.25 ± 3.26): ***9.66 ± 1.71
- Cumulative duration of hindlimb scratching (1.0 mg/kg p.o., 25-30 mins after GR73632 i.d., vehicle 25.69 ± 3.026): ***10.00 ± 2.17 secs
- Cumulative frequency of hindlimb scratching (1.0 mg/kg p.o., 25-30 mins after GR73632 i.d., vehicle 32.00 ± 3.60): ***12.08 ± 2.25
- Cumulative duration of hindlimb scratching (3.0 mg/kg p.o., 0-5 mins after GR73632 i.d., vehicle 5.35 ± 1.37): NS 0.96 ± 0.32 secs
- Cumulative frequency of hindlimb scratching (3.0 mg/kg p.o., 0-5 mins after GR73632 i.d., vehicle 7.75 ± 2.18): NS1.58 ± 0.46
- Cumulative duration of hindlimb scratching (3.0 mg/kg p.o., 5-10 mins after GR73632 i.d., vehicle 11.71 ± 1.93): ***1.30 ± 0.38 secs
- Cumulative frequency of hindlimb scratching (3.0 mg/kg p.o., 5-10 mins after GR73632 i.d., vehicle 14.41 ± 2.49): ***2.16 ± 0.58
- Cumulative duration of hindlimb scratching (3.0 mg/kg p.o., 10-15 mins after GR73632 i.d., vehicle 16.54 ± 2.58): ***1.79 ± 0.39 secs
- Cumulative frequency of hindlimb scratching (3.0 mg/kg p.o., 10-15 mins after GR73632 i.d., vehicle 20.25 ± 2.97): ***2.83 ± 0.57
- Cumulative duration of hindlimb scratching (3.0 mg/kg p.o., 15-20 mins after GR73632 i.d., vehicle 20.08 ± 2.83): ***2.415 ± 0.47 secs
- Cumulative frequency of hindlimb scratching (3.0 mg/kg p.o., 15-20 mins after GR73632 i.d., vehicle 24.33 ± 3.22): ***3.66 ± 0.64
- Cumulative duration of hindlimb scratching (3.0 mg/kg p.o., 20-25 mins after GR73632 i.d., vehicle 23.19 ± 2.80): ***2.59 ± 0.50 secs
- Cumulative frequency of hindlimb scratching (3.0 mg/kg p.o., 20-25 mins after GR73632 i.d., vehicle 28.25 ± 3.26): ***4.00 ± 0.67
- Cumulative duration of hindlimb scratching (3.0 mg/kg p.o., 25-30 mins after GR73632 i.d., vehicle 25.69 ± 3.026): ***3.09 ± 0.61 secs
- Cumulative frequency of hindlimb scratching (3.0 mg/kg p.o., 25-30 mins after GR73632 i.d., vehicle 32.00 ± 3.60): ***4.58 ± 0.76
- Cumulative duration of hindlimb scratching (10.0 mg/kg p.o., 0-5 mins after GR73632 i.d., vehicle 5.35 ± 1.37): NS 0.57 ± 0.29 secs
- Cumulative frequency of hindlimb scratching (10.0 mg/kg p.o., 0-5 mins after GR73632 i.d., vehicle 7.75 ± 2.18): *0.91 ± 0.43
- Cumulative duration of hindlimb scratching (10.0 mg/kg p.o., 5-10 mins after GR73632 i.d., vehicle 11.71 ± 1.93): ***1.13 ± 0.38 secs
- Cumulative frequency of hindlimb scratching (10.0 mg/kg p.o., 5-10 mins after GR73632 i.d., vehicle 14.41 ± 2.49): ***1.66 ± 0.60
- Cumulative duration of hindlimb scratching (10.0 mg/kg p.o., 10-15 mins after GR73632 i.d., vehicle 16.54 ± 2.58): ***2.38 ± 0.78 secs
- Cumulative frequency of hindlimb scratching (10.0 mg/kg p.o., 10-15 mins after GR73632 i.d., vehicle 20.25 ± 2.97): ***2.58 ± 0.73
- Cumulative duration of hindlimb scratching (10.0 mg/kg p.o., 15-20 mins after GR73632 i.d., vehicle 20.08 ± 2.83): ***3.22 ± 0.84 secs
- Cumulative frequency of hindlimb scratching (10.0 mg/kg p.o., 15-20 mins after GR73632 i.d., vehicle 24.33 ± 3.22): ***3.58 ± 0.73
- Cumulative duration of hindlimb scratching (10.0 mg/kg p.o., 20-25 mins after GR73632 i.d., vehicle 23.19 ± 2.80): ***4.36 ± 1.18 secs
- Cumulative frequency of hindlimb scratching (10.0 mg/kg p.o., 20-25 mins after GR73632 i.d., vehicle 28.25 ± 3.26): ***5.00 ± 0.92
- Cumulative duration of hindlimb scratching (10.0 mg/kg p.o., 25-30 mins after GR73632 i.d., vehicle 25.69 ± 3.026): ***5.24 ± 1.35 secs
- Cumulative frequency of hindlimb scratching (10.0 mg/kg p.o., 25-30 mins after GR73632 i.d., vehicle 32.00 ± 3.60): ***5.91 ± 1.16
SMILES: Cc1cc(F)ccc1[C@H]1C[C@@H](N2CCN3C(=O)CC[C@H]3C2)CCN1C(=O)N(C)[C@H](C)c1cc(C(F)(F)F)cc(C(F)(F)F)c1.O=C(O)/C=C\C(=O)O [orvepitant maleate, 2-(R)-(4-Fluoro-2-methyl-phenyl)-4-(S)-((8aS)-6-oxo-hexahydro-pyrrolo[1,2-a]-pyrazin-2-yl)-piperidine-1-carboxylic acid [1-(R)-(3,5-bis-trifluoromethyl-phenyl)-ethyl]-methylamide maleate]
